According to patent publication US20150072416A1, “METABOLITE FOR IMPROVING PRODUCTION, MAINTENANCE AND PROLIFERATION OF PLURIPOTENT STEM CELLS, COMPOSITION COMPRISING THE SAME, AND METHOD OF CULTURING PLURIPOTENT STEM CELL USING THE SAME” (KOREA RESEARCH INSTITUTE OF BIOSCIENCE AND BIOTENOLOGY, priority 2012, published 2015):

Tests used:
Format in all cases: cell-based
[1] = test system: human fibroblasts transfected with reprogramming factors; assay: Reprogramming kinetics of hiPSCs (stem cell marker expression, time to colonies)
Method: Total RNA was isolated from produced cells using an RNeasy Mini kit (Qiagen, Valencia, Calif.) and reverse-transcribed using a SuperScript First-strand synthesis system kit (Invitrogen) according to the manufacturer's instruction. Then, semi-quantitative RT-PCR was performed using a platinum Tag SuperMix kit (Invitrogen) under the following conditions: 94° C. for 3 minutes, and then 25-30 cycles, each consisting of 94° C. for 30 sec, 60° C. for 30 sec and 72° C. for 30 sec, followed by extension at 72° C. for 10 minutes. For immunostaining, cells were seeded on Matrigel-coated 4-well Lab-Tek chamber slides (Nunc, Naperville, Ill.) and cultured for 5 days under the indicated conditions. The cells were fixed in 4% paraformaldehyde at room temperature for 15 minutes, and then washed with PBS/0.2% BSA. Next, the cells were passed through PBS/0.2% BSA/0.1% Triton X-100 for 15 minutes, and then incubated with 4% normal donkey serum (Molecular Probes, Eugene, Oreg., USA) in PBS/0.2% BSA at room temperature for 1 hour. The cells were diluted with PBS/0.2% BSA, and then reacted with primary antibody at 4° C. for 2 hours. After washing, the cells were reacted with FITC- or Alexa594-conjugated secondary antibody (Invitrogen) in PBS/0.2% BSA at room temperature for 1 hour. The cells were counter-stained with 10 μg/ml DAPI. […] From day 5 of culture (D5), the expression levels of the stem cell markers Nanog and Tra-1-60 in the cell group treated with nicotinamide increased by 3 times and 8 times, respectively, compared to those in the untreated group (FIG. 6).

[2] = test system: human foreskin fibroblasts (hFFs); assay: Reprogramming efficiency of human fibroblasts into induced pluripotent stem cells (AP-positive colonies); conditions: for efficiency of reprogramming by timing of treatment: 1 mM
Method: Reprogramming efficiency was determined by measuring the number of colonies showing a positive response in the pluripotency-specific marker alkaline phosphatase (AP) staining and having hESC-like morphology. For production of iPSC, human foreskin fibroblasts (hFFs) were seeded on gelatin-coated 6-well plates at a concentration of 1×10^5 cells per well at 6 hours before transfection and were transfected with virus in the presence of polybrene (6 μg/ml). At 5 days after the transfection, the hFFs were collected by trypsin treatment and reseeded on Matrigel-coated 6-well plates at a concentration of 5-6×10^4 cells per well in order to perform experiments in feeder-free conditions. The medium was replaced with MEF-CM medium containing 10 ng/ml of bFGF. The medium was replaced at 2-day intervals. At 20 days after the transfection, hESC-like colonies were collected and transferred to 12-well plates having MEFs as feeder cells, and then the colonies were continuously cultured using the hESC culture method described in Example 1. In order to measure the efficiency of reprogramming into human induced pluripotent stem cells, the number of colonies stained with the embryonic stem cell marker ALP on the Matrigel-coated 6-well plate was counted, and the efficiency of reprogramming was calculated. Each experiment was performed in triplicate. AP staining was performed using a commercial AP kit (Sigma) according to the manufacturer's instruction. Images of AP-positive cells were recorded with HP Scanjet G4010. Also, bight field images were obtained with an Olympus microscope (IX51, Olympus, Japan). In order to examine the change in reprogramming efficiency of human fibroblasts caused by nicotinamide, retrovirus expressing the reprogramming factors Oct4, Sox2, Klf4 and c-Myc was transfected at an MOI of 1. Reprogramming efficiencies caused by the addition of nicotinamide and other NAD precursors were examined.

[3] = test system: H9 human embryonic stem cells and human induced pluripotent stem cells; assay: Low-density cloning after single-cell dissociation (AP staining, apoptosis); conditions: AP staining and apoptosis assays
Method: In order to examine the effect of nicotinamide on a reduction in the apoptosis of human pluripotent stem cells, dual apoptosis assay (Biotium, Hayward, Calif.) was performed. Embryonic stem cells or cells reprogrammed were stained with NucView™488 Caspase-3 Substrate (green)/Annextin V (red) at room temperature for 30 minutes, followed by washing with PBS. At least 4 sections of each sample were imaged with an Olympus fluorescence microscope (IX51, Olympus), and the number of cells stained with green (Caspase-3) was counted to quantify the degree of apoptosis.
In order to examine the effect of nicotinamide on the survival of human pluripotent stem cells at low density, human pluripotent stem cells were treated with TrypLE reagent (Invitrogen) for 3 minutes, and then dissociated into single cells by pipetting and seeded on a Matrigel-coated 96-well plate at a density of 500 cells per well. After 5 days of culture, human pluripotent stem cell colonies started to be formed, and the cells were fixed with 4% paraformaldehyde, and then AP staining was performed or the level of apoptosis was measured.

[4] = from day 5 of culture, compared to untreated group

Compound: NC(=O)c1cccnc1 [nicotinamide]
- period of time required until hiPSCs colonies ([1]; cells treated with nicotinamide, 3 weeks or more generally required): ≤ 2 weeks
- increase in expression level of stem cell marker Nanog (immunostaining) [1, 4]: 3 times
- increase in expression level of stem cell marker Tra-1-60 (immunostaining) [1, 4]: 8 times
- mRNA expression levels of Nanog and TERT ([1]; from day 7, real-time PCR): rapidly increased
- increase in reprogramming efficiency (AP-positive colonies) ([2]; 0.1 mM nicotinamide, compared to untreated group): 13 times
- increase in reprogramming efficiency (AP-positive colonies) ([2]; 1 mM nicotinamide, compared to untreated group): 28 times
- increase in reprogramming efficiency (AP-positive colonies) ([2]; 10 mM nicotinamide, compared to untreated group): 16 times
- increase in reprogramming efficiency (AP-positive colonies) ([2]; 20 mM nicotinamide, compared to untreated group): 2 times
- increase in reprogramming efficiency (AP-positive colonies) ([2]; compared to the addition of other NAD precursors, OSKM retrovirus MOI 1): about 17 times
- efficiency of reprogramming by timing of treatment ([2]; continuous treatment throughout the process of inducing reprogramming): highest increase
- reprogramming efficiency, same cell number reseeded ([2]; nicotinamide for 5 days after infection, not added after reseeding, vs untreated control): increase in reprogramming efficiency
- reprogramming efficiency, same cell number reseeded ([2]; nicotinamide only after reseeding (21 days), not in initial stage, vs untreated): increase in reprogramming efficiency
- efficiency of reprogramming by timing of treatment ([2]; treatment in initial stage immediately after viral infection): most effectively increased
- survival and self-renewal abilities at low density after single-cell dissociation [3]: significantly increased
